Structures can show the parent of a compound that is named as a salt.
Target: T1, Adrenergic β2 (Homo sapiens, UniProt P07550)
T1 construct: Adherent H292 cells were removed from tissue culture flasks; endogenous in cells; host or cells: H292 cells
Assay: Adrenergic β2 mediated cAMP production in H292 cells (AlphaScreen cAMP detection)
Format: cell-based
Conditions: Intrinsic Activity, fraction relative to the maximum activity determined for formoterol
Method in brief: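 H292 cells, 5000/well, preincubated 10 min with rolipram (final 300 μM, 1.6% DMSO) in HEPES pH 7.4 HBSS, then compound 60 min at room temperature. Lysate cAMP quantified by AlphaScreen against a cAMP standard curve. pEC50 and intrinsic activity (fraction of formoterol maximum) from four-parameter logistic fits.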

T1 sequence (P07550 whole entry): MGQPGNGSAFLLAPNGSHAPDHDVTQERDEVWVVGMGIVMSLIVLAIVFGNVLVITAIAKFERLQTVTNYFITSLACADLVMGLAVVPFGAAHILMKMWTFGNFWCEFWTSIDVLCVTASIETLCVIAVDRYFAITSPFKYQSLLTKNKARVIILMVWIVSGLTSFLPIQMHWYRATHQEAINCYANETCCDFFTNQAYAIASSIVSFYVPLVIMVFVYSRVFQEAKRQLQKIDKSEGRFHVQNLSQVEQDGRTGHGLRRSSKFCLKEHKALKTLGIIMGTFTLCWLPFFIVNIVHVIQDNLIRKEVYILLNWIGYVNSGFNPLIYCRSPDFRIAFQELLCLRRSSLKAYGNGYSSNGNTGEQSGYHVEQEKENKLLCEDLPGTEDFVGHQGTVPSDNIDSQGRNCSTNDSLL

| β2 Int Act | SMILES |
| --- | --- |
| 0.79 | O=C(CCNC[C@@H](O)c1ccccc1)N(CCNCCc1ccc(O)c2[nH]c(=O)sc12)C1CCCCC1 [Example 74, N^1-Cyclohexyl-N^1-(2-{[2-(4-hydroxy-2-oxo-2,3-dihydro-1,3-benzothiazol-7-yl)ethyl]amino}ethyl)-N^3-[(2S)-2-hydroxy-2-phenylethyl]-β-alaninamide bis-trifluoroacetic acid salt] |
| 0.91 | O=C(CCNC[C@H](O)c1ccccc1)N(CCNCCc1ccc(O)c2[nH]c(=O)sc12)C1CCCCC1 [Example 75, N^1-Cyclohexyl-N^1-(2-{[2-(4-hydroxy-2-oxo-2,3-dihydro-1,3-benzothiazol-7-yl)ethyl]amino}ethyl)-N^3-[(2R)-2-hydroxy-2-phenylethyl]-β-alaninamide bis-trifluoroacetic acid salt] |
| 0.68 | O=C(CCNCCc1ccc2c(c1)OCO2)N(CCNCCc1ccc(O)c2[nH]c(=O)sc12)C1CCCCC1 [Example 76, N^3-[2-(1,3-Benzodioxol-5-yl)ethyl]-N^1-cyclohexyl-N^1-(2-{[2-(4-hydroxy-2-oxo-2,3-dihydro-1,3-benzothiazol-7-yl)ethyl]amino}ethyl)-β-alaninamide bis-trifluoroacetic acid salt] |
| 0.54 | O=C(CCNCCc1nc2ccccc2[nH]1)N(CCNCCc1ccc(O)c2[nH]c(=O)sc12)C1CCCCC1 [Example 77, N^3-[2-(1H-Benzimidazol-2-yl)ethyl]-N^1-cyclohexyl-N^1-(2-{[2-(4-hydroxy-2-oxo-2,3-dihydro-1,3-benzothiazol-7-yl)ethyl]amino}ethyl)-β-alaninamide tris-trifluoroacetic acid salt] |
| 0.84 | O=C(CCNCCc1cc(F)ccc1F)N(CCNCCc1ccc(O)c2[nH]c(=O)sc12)C1CCCCC1 [Example 79, N^1-Cyclohexyl-N^3-[2-(2,5-difluorophenyl)ethyl]-N^1-(2-{[2-(4-hydroxy-2-oxo-2,3-dihydro-1,3-benzothiazol-7-yl)ethyl]amino}ethyl)-β-alaninamide bis-trifluoroacetic acid salt] |
| 0.86 | O=C(CCNCCC(F)(F)F)N(CCNCCc1ccc(O)c2[nH]c(=O)sc12)C1CCCCC1 [Example 80, N^1-Cyclohexyl-N^1-(2-{[2-(4-hydroxy-2-oxo-2,3-dihydro-1,3-benzothiazol-7-yl)ethyl]amino}ethyl)-N^3-(3,3,3-trifluoropropyl)-β-alaninamide bis-trifluoroacetic acid salt] |
| 0.86 | O=C(CCNCCc1cccc(C(F)(F)F)c1)N(CCNCCc1ccc(O)c2[nH]c(=O)sc12)C1CCCCCC1 [Example 82, N^1-Cycloheptyl-N^1-(2-{[2-(4-hydroxy-2-oxo-2,3-dihydro-1,3-benzothiazol-7-yl)ethyl]amino}ethyl)-N^3-{2-[3-(trifluoromethyl)phenyl]ethyl}-β-alaninamide bis-trifluoroacetic acid salt] |
| 0.71 | O=C(CCNCCc1cc(F)ccc1F)N(CCNCCc1ccc(O)c2[nH]c(=O)sc12)C1CCCCCC1 [Example 83, N^1-Cycloheptyl-N^3-[2-(2,5-difluorophenyl)ethyl]-N^1-(2-{[2-(4-hydroxy-2-oxo-2,3-dihydro-1,3-benzothiazol-7-yl)ethyl]amino}ethyl)-β-alaninamide bis-trifluoroacetic acid salt] |

The remaining lines, values behind:

| SMILES | β2 Int Act |
| --- | --- |
| CC(C)(CO)CN(CCNCCc1ccc(O)c2[nH]c(=O)sc12)C(=O)CCNCCc1cccc(Cl)c1 [Example 66, N^3-[2-(3-Chlorophenyl)ethyl]-N^1-(3-hydroxy-2,2-dimethylpropyl)-N^1-(2-{[2-(4-hydroxy-2-oxo-2,3-dihydro-1,3-benzothiazol-7-yl)ethyl]amino}ethyl)-β-alaninamide bis-trifluoroacetic acid salt] | 0.59 |
| CC(C)(CO)CN(CCNCCc1ccc(O)c2[nH]c(=O)sc12)C(=O)CCNCCc1cccc(Cl)c1Cl [Example 67, N^3-[2-(2,3-Dichlorophenyl)ethyl]-N^1-(3-hydroxy-2,2-dimethylpropyl)-N^1-(2-{[2-(4-hydroxy-2-oxo-2,3-dihydro-1,3-benzothiazol-7-yl)ethyl]amino}ethyl)-β-alaninamide bis-trifluoroacetic acid salt] | 0.70 |
| COc1ccc(CCNCCC(=O)N(CCNCCc2ccc(O)c3[nH]c(=O)sc23)C2CCCCC2)cc1 [Example 68, N^1-Cyclohexyl-N^1-(2-{[2-(4-hydroxy-2-oxo-2,3-dihydro-1,3-benzothiazol-7-yl)ethyl]amino}ethyl)-N^3-[2-(4-methoxyphenyl)ethyl]-β-alaninamide bis-trifluoroacetic acid salt] | 0.68 |
| NS(=O)(=O)c1ccc(CCNCCC(=O)N(CCNCCc2ccc(O)c3[nH]c(=O)sc23)C2CCCCC2)cc1 [Example 69, N^3-{2-[4-(Aminosulfonyl)phenyl]ethyl}-N^1-cyclohexyl-N^1-(2-{[2-(4-hydroxy-2-oxo-2,3-dihydro-1,3-benzothiazol-7-yl)ethyl]amino}ethyl)-β-alaninamide bis-trifluoroacetic acid salt] | 0.82 |
| COc1cccc(CCNCCC(=O)N(CCNCCc2ccc(O)c3[nH]c(=O)sc23)C2CCCCC2)c1 [Example 70, N^1-Cyclohexyl-N^1-(2-{[2-(4-hydroxy-2-oxo-2,3-dihydro-1,3-benzothiazol-7-yl)ethyl]amino}ethyl)-N^3-[2-(3-methoxyphenyl)ethyl]-β-alaninamide bis-trifluoroacetic acid salt] | 0.84 |
| O=C(CCNCCc1cccc(O)c1)N(CCNCCc1ccc(O)c2[nH]c(=O)sc12)C1CCCCC1 [Example 71, N^1-Cyclohexyl-N^1-(2-{[2-(4-hydroxy-2-oxo-2,3-dihydro-1,3-benzothiazol-7-yl)ethyl]amino}ethyl)-N^3-[2-(3-hydroxyphenyl)ethyl]-β-alaninamide bis-trifluoroacetic acid salt] | 0.97 |
| O=C(CCNCCc1ccc(Cl)s1)N(CCNCCc1ccc(O)c2[nH]c(=O)sc12)C1CCCCC1 [Example 72, N^3-[2-(5-Chloro-2-thienyl)ethyl]-N^1-cyclohexyl-N^1-(2-{[2-(4-hydroxy-2-oxo-2,3-dihydro-1,3-benzothiazol-7-yl)ethyl]amino}ethyl)-β-alaninamide bis-trifluoroacetic acid salt] | 0.89 |
| O=C(CCNCCc1ccc(F)c(F)c1)N(CCNCCc1ccc(O)c2[nH]c(=O)sc12)C1CCCCC1 [Example 73, N^1-Cyclohexyl-N^3-[2-(3,4-difluorophenyl)ethyl]-N^1-(2-{[2-(4-hydroxy-2-oxo-2,3-dihydro-1,3-benzothiazol-7-yl)ethyl]amino}ethyl)-β-alaninamide bis-trifluoroacetic acid salt] | 0.85 |
| O=C(CCNCCc1cc(F)cc(F)c1)N(CCNCCc1ccc(O)c2[nH]c(=O)sc12)C1CCCCC1 [Example 78, N^1-Cyclohexyl-N^3-[2-(3,5-difluorophenyl)ethyl]-N^1-(2-{[2-(4-hydroxy-2-oxo-2,3-dihydro-1,3-benzothiazol-7-yl)ethyl]amino}ethyl)-β-alaninamide bis-trifluoroacetic acid salt] | 0.91 |
| O=C(CCNCCc1cccc(F)c1F)N(CCNCCc1ccc(O)c2[nH]c(=O)sc12)C1CCCCC1 [Example 81, N^1-Cyclohexyl-N^3-[2-(2,3-difluorophenyl)ethyl]-N^1-(2-{[2-(4-hydroxy-2-oxo-2,3-dihydro-1,3-benzothiazol-7-yl)ethyl]amino}ethyl)-β-alaninamide bis-trifluoroacetic acid salt] | 0.89 |
